{"source": "patent US20040184993A1", "about": "“Pharmaceutical aerosol composition containing HFA 227 and HFA 134a” (Chiesi Farmaceutici S.p.A., priority 1998, published 2004)", "key": {"[1]": {"conditions": "BDP as a solution in HFA 134a (formulations of EP 0553298), reported in literature; cited from earlier work"}, "[2]": {"test": "Aerodynamic particle size distribution of pMDI solution formulations by Andersen Cascade Impactor (MMAD, GSD, fine particle dose)", "type": "physicochemical", "conditions": "for FPD3 < 4.7 μm*: ethanol 15%, normalized for 250 nominal dose", "method": "The aerodynamic particle size distribution of each formulation was characterized using a Multistage Cascade Impactor according to the procedure described in the European Pharmacopoeia 2nd edition, 1995, part V.5.9.1. pages 15-17. In this specific case an Andersen Cascade Impactor (ACI) was used. Results represented were obtained from ten cumulative actuations of a formulation. Deposition of the drug on each ACI plate was determined by high pressure liquid chromatography. The mass median aerodynamic diameter (MMAD) and geometric standard deviation (GSD) were calculated from plots of the cumulative percentage undersize of drug collected on each ACI plate (probit scale), against the upper cut off diameter for each respective ACI plate (log10 scale). The fine particle dose of each formulation was determined from the mass of drug collected on Stages 3 through to Filter (<4.7 μm) divided by the number of actuations per experiment."}, "[3]": {"conditions": "BDP 50 μg/shot, ethanol 13%, glycerol 1.3%, HFA 134a, chamber volume 25 μl, actuator orifice 0.25 mm"}, "[4]": {"conditions": "BDP 50 μg/shot, ethanol 13%, glycerol 1.3%, HFA 134a, chamber volume 25 μl, actuator orifice 0.30 mm"}, "[5]": {"conditions": "BDP 50 μg/shot, ethanol 13%, glycerol 1.3%, HFA 134a, chamber volume 50 μl, actuator orifice 0.30 mm"}, "[6]": {"conditions": "BDP 50 μg/shot, ethanol 13%, glycerol 1.3%, HFA 134a, chamber volume 100 μl, actuator orifice 0.30 mm"}, "[7]": {"conditions": "BDP 50 μg/shot, ethanol 13%, glycerol 1.3%, HFA 227, chamber volume 25 μl, actuator orifice 0.30 mm"}, "[8]": {"conditions": "BDP 50 μg/shot, ethanol 13%, glycerol 1.3%, HFA 227, chamber volume 50 μl, actuator orifice 0.30 mm"}, "[9]": {"conditions": "BDP 50 μg/shot, ethanol 13%, glycerol 1.3%, HFA 227, chamber volume 100 μl, actuator orifice 0.30 mm"}, "[10]": {"conditions": "BDP 250 μg/shot, ethanol 15% (w/w), glycerol 1.3% (w/w), actuator 0.30 mm, HFA 227/HFA 134a 0:100"}, "[11]": {"conditions": "BDP 250 μg/shot, ethanol 15% (w/w), glycerol 1.3% (w/w), actuator 0.30 mm, HFA 227/HFA 134a 25:75"}, "[12]": {"conditions": "BDP 250 μg/shot, ethanol 15% (w/w), glycerol 1.3% (w/w), actuator 0.30 mm, HFA 227/HFA 134a 50:50"}, "[13]": {"conditions": "BDP 250 μg/shot, ethanol 15% (w/w), glycerol 1.3% (w/w), actuator 0.30 mm, HFA 227/HFA 134a 75:25"}, "[14]": {"conditions": "BDP 250 μg/shot, ethanol 15% (w/w), glycerol 1.3% (w/w), actuator 0.30 mm, HFA 227/HFA 134a 100:0"}}, "note": "Where “and” joins values, the source holds several entries; their conditions need not be identical. Identical values can stand only once. Like-named read-outs stand apart in the source and are kept apart here."}
{"smiles": "CCC(=O)OCC(=O)[C@@]1(OC(=O)CC)[C@@H](C)C[C@H]2[C@@H]3CCC4=CC(=O)C=C[C@]4(C)[C@@]3(Cl)[C@@H](O)C[C@@]21C", "note": "[BDP, beclomethasone 17,21 dipropionate]", "values": [{"measurement": "MMAD", "setting": "[1]", "result": 1.1, "unit": "μm"}, {"measurement": "FPD < 4.7 μm", "setting": "[2]; [3]", "result": 26.0, "unit": "µg"}, {"measurement": "GSD", "setting": "[2]; [3]", "result": 1.9}, {"measurement": "MMAD", "setting": "[2]; [3]", "result": 2.8, "unit": "μm"}, {"measurement": "Metered Dose", "setting": "[2]; [3]", "result": 55, "unit": "µg"}, {"measurement": "FPD < 4.7 μm", "setting": "[2]; [4]", "result": 19.2, "unit": "µg"}, {"measurement": "GSD", "setting": "[2]; [4]", "result": 2.0}, {"measurement": "MMAD", "setting": "[2]; [4]", "result": 2.6, "unit": "μm"}, {"measurement": "Metered Dose", "setting": "[2]; [4]", "result": 57, "unit": "µg"}, {"measurement": "FPD < 4.7 μm", "setting": "[2]; [5]", "result": 13.9, "unit": "µg"}, {"measurement": "GSD", "setting": "[2]; [5]", "result": 2.1}, {"measurement": "MMAD", "setting": "[2]; [5]", "result": 2.8, "unit": "μm"}, {"measurement": "Metered Dose", "setting": "[2]; [5]", "result": 49, "unit": "µg"}, {"measurement": "FPD < 4.7 μm", "setting": "[2]; [6]", "result": 11.7, "unit": "µg"}, {"measurement": "GSD", "setting": "[2]; [6]", "result": 2.2}, {"measurement": "MMAD", "setting": "[2]; [6]", "result": 2.7, "unit": "μm"}, {"measurement": "Metered Dose", "setting": "[2]; [6]", "result": 51, "unit": "µg"}, {"measurement": "FPD < 4.7 μm", "setting": "[2]; [7]", "result": 16.4, "unit": "µg"}, {"measurement": "GSD", "setting": "[2]; [7]", "result": 2.1}, {"measurement": "MMAD", "setting": "[2]; [7]", "result": 3.6, "unit": "μm"}, {"measurement": "Metered Dose", "setting": "[2]; [7]", "result": 58, "unit": "µg"}, {"measurement": "FPD < 4.7 μm", "setting": "[2]; [8]", "result": 13.1, "unit": "µg"}, {"measurement": "GSD", "setting": "[2]; [8]", "result": 2.2}, {"measurement": "MMAD", "setting": "[2]; [8]", "result": 3.5, "unit": "μm"}, {"measurement": "Metered Dose", "setting": "[2]; [8]", "result": 51, "unit": "µg"}, {"measurement": "FPD < 4.7 μm", "setting": "[2]; [9]", "result": 12.6, "unit": "µg"}, {"measurement": "GSD", "setting": "[2]; [9]", "result": 2.2}, {"measurement": "MMAD", "setting": "[2]; [9]", "result": 3.5, "unit": "μm"}, {"measurement": "Metered Dose", "setting": "[2]; [9]", "result": 49, "unit": "µg"}, {"measurement": "FPD", "setting": "[2]; [10]", "result": "27, 27%"}, {"measurement": "MMAD", "setting": "[2]; [10]", "result": "2.8, 2.8 μm"}, {"measurement": "FPD", "setting": "[2]; [11]", "result": "27% and 28%"}, {"measurement": "MMAD", "setting": "[2]; [11]", "result": "3.3 μm and 3.2 μm"}, {"measurement": "FPD", "setting": "[2]; [12]", "result": "25, 25%"}, {"measurement": "MMAD", "setting": "[2]; [12]", "result": "3.4 μm and 3.7 μm"}, {"measurement": "FPD", "setting": "[2]; [13]", "result": "25, 25%"}, {"measurement": "MMAD", "setting": "[2]; [13]", "result": "3.7, 3.7 μm"}, {"measurement": "FPD", "setting": "[2]; [14]", "result": "20% and 24%"}, {"measurement": "MMAD", "setting": "[2]; [14]", "result": "4.2 μm and 3.9 μm and 3.8 μm"}, {"measurement": "FPD3 < 4.7 μm*", "setting": "[2]; BDP 250 μg/shot, glycerol 1.3%, actuator 0.30 mm, HFA 227/HFA 134a 0:100", "result": "58 µg and 59 µg"}, {"measurement": "FPD3 < 4.7 μm*", "setting": "[2]; BDP 250 μg/shot, glycerol 1.3%, actuator 0.30 mm, HFA 227/HFA 134a 25:75", "result": "60 µg and 62 µg"}, {"measurement": "FPD3 < 4.7 μm*", "setting": "[2]; BDP 250 μg/shot, glycerol 1.3%, actuator 0.30 mm, HFA 227/HFA 134a 50:50", "result": "56, 56 μg"}, {"measurement": "FPD3 < 4.7 μm*", "setting": "[2]; BDP 250 μg/shot, glycerol 1.3%, actuator 0.30 mm, HFA 227/HFA 134a 75:25", "result": "56 µg and 57 µg"}, {"measurement": "FPD3 < 4.7 μm*", "setting": "[2]; BDP 250 μg/shot, glycerol 1.3%, actuator 0.30 mm, HFA 227/HFA 134a 100:0", "result": "47 µg and 45 µg and 50 µg"}]}
